Measurements from patent US20240239801A1, “PYRIMIDO[5,4,D]PYRIMIDINE COMPOUNDS, COMPOSITIONS COMPRISING THEM AND USES THEREOF” (Université de Montréal, priority 2021, published 2024).
Where two headings read alike, the source gives them in different places.

Experiments:
[1] = system: HCT116 pERK; test: Phospho-ERK inhibition, AlphaLISA SureFire Ultra p-ERK 1/2; assay type: cell-based, human; conditions: for IC50: 1 h treatment; for HCT116 (Ymin %): lowest value of the pERK IC50 curve
Method: (§1) All cancer cell lines (A375, A101D, A2058, RKO, HT29 SK-MEL 30, IPC298, HepG2, HCT-116, Lovo, SW620, SW480, NCI-H358, NCI-H2122, Calu-6, NCIH2087, NCIH1755, NCIH1666 and Mewo) were obtained from ATCC and cultured in RPMI-1640 medium (Gibco) supplemented with 5% heat inactivated fetal bovine serum (FBS, Wisent) at 37° C. under 5% CO2. Cells were maintained in T175 flasks (Greiner). They were passaged by removing the culture medium, washing once in 10 mL of room temperature Phosphate Buffered Saline (PBS; Wisent) and incubating at 37° C. with 2 mL of 0.05% Trypsin (Thermo-Fisher). Trypsin was then inactivated by adding complete growth medium and the cells were then replated in a T175 culture dish at the appropriate dilution. All cell lines were routinely tested for mycoplasma contamination. Tissue type and mutational status of each cell line can be found in Table B.
(§2) AlphaLISA® SureFire® Ultra™ p-ERK ½ (Thr202/Tyr204) analysis was conducted on cells plated in 100 μL of complete RPMI-1640 growth medium in 96-well flat-bottomed transparent dishes (Costar) at a density indicated in Table C. Cells were maintained overnight at 37° C. under 5% CO2 before treatment with compounds' dilution series for one hour. The cell density in cells/cm^2 corresponds to cell number divided by the area of one well of a 96-well plate ([…]).
(§3) In a dilution series 100 μL/well of test substance dilution prepared in complete RPMI-1640 growth media was added to the cells. The dilution series is selected so that ten concentrations cover a range from 30 μM or 10 μM to 0.33 nM. If necessary, the initial concentration of 10 μM is increased to 100 μM or lowered to 1 μM (as in the case of A375 and NCIH1666 cells, which are generally more sensitive to the compounds) and further dilution is carried out accordingly. The final concentration of DMSO in the assay is set at 0.5%.
(§4) After treatment, media was removed, and cells were lysed in 50 μL of 1× AlphaScreen Ultra Lysis Buffer (Perkin Elmer). The AlphaLISA® SureFire® Ultra™ p-ERK ½ (Thr202/Tyr2O4) (PerkinElmer) reactions were performed with 5 μL of cell lysate according to the manufacturer's specifications in 384-well proxyplates (Perkin Elmer) followed by overnight incubation of the reactions at room temperature in a humidified chamber. After completion of the reactions, the signals were recorded on an EnVision plate reader (Perkin Elmer) using built in AlphaLISA® settings.
(§5) The effect of each compound dilution on the pERK signal was expressed in % inhibition and calculated as follows. An internal 100% inhibition control (1 μM trametinib, cat. No. HY-10999; MedChem Express; CAS No. 871700-17-3) was included in each plate and used as a measure of pERK background. First, the value obtained for trametinib was subtracted from each data point. The average of DMSO (vehicle) controls (set as 0% inhibition) was established and used to calculate % inhibition:
(§6) The ability of each compound to inhibit pERK signal was expressed as an IC50 value obtained by plotting the inhibition values for each data point of a dilution series and fitting the obtained curves using a log(agonist) versus response−variable slope (four parameters) function using GraphPadPrism (V7.0).
(§7) When present, paradoxical pERK induction is inferred from the negative % inhibition values observed in the pERK IC50 curves of a compound.

[2] = molecular target: CRAF (Homo sapiens, UniProt P04049); test: CRAF kinase activity assay (ADP-Glo); assay type: biochemical; conditions: Table 3
Sequence of CRAF (P04049 whole entry): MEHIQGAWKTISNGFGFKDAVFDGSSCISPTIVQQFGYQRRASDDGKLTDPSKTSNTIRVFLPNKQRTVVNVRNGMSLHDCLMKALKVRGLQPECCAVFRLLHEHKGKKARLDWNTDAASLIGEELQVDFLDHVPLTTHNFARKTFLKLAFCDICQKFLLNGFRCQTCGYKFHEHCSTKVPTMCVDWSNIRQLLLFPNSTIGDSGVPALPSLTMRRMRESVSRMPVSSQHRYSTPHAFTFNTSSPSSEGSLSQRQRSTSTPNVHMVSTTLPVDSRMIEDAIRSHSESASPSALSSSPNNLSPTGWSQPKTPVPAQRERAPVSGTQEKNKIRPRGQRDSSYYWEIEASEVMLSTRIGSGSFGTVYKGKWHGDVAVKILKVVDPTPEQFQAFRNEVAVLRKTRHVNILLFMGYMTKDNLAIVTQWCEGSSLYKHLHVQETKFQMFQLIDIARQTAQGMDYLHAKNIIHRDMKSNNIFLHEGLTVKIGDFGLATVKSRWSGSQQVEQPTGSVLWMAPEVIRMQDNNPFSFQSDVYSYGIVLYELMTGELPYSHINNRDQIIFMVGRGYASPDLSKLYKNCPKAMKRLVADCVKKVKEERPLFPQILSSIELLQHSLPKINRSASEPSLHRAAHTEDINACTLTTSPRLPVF
Method: (§8) Compound preparation: solid samples of each substances in 1dram vials were suspended in DMSO (Fisher Scientific) at a stock concentration of 20 mM. Stocks were kept at −20° C. and protected from light. If solubility of the compound at 20 mM appeared to be an issue, the initial concentration of the DMSO stock was changed to 10 mM or 5 mM.
(§9) In vitro enzymatic reactions were used for evaluating compounds intrinsic activity against BRAF, CRAF and ARAF. For BRAF and CRAF, 0.375 nM of purified GST-tagged kinases (cat #B4062-10UG and cat #R1656-10UG respectively from Millipore Sigma) were incubated with 75 nM of kinase-dead MEK1 substrate (cat #40075; BPS Bioscience) in the presence of 10 μM of Ultrapure ATP (cat #V9102; Promega; part V915A) with and without the test compound in a buffer containing 50 mM HEPES pH 7.5, 10 mM MgCl2, 1 mM EDTA, 0.01% Brij-35 and 2 mM DTT. Separate reactions were performed with the MEK1 substrate and ATP as a blank control. ARAF, kinase reactions were rigorously the same with the exception that kinase concentration was raised to 3.75 nM (cat #1768-0000-1; Reaction Biology).
(§10) For compound treatment, 5 μL/well of test substance solution are placed in a 384-well proxyplate (Perkin Elmer) and mixed with 2× concentrated kinase reactions. The dilution series is selected so that nine concentrations cover a range from 100 nM to 0.01 nM. […] The final concentration of DMSO in the assay is set at 0.05%.
(§11) BRAF and CRAF kinase reactions were carried out for a total of 2 hours at 30° C. and then stopped by ½ dilution in ADP-Glo Reagent (cat #V9102; Promega; part V912C). Reactions were then incubated for 1 h at room temperature before addition of one volume of Kinase Detection Reagent (cat #V9102; Promega; part V917A). Plates were then equilibrated at room temperature for 30 minutes before detection of luminescence on a Synergy Neo2 plate reader (Biotek). The effect of each compound dilution on BRAF and CRAF kinase activity was expressed as % inhibition and calculated as follows. First, the internal 100% inhibition control (average of luminescence in kinase reactions comprising kinase dead MEK1 substrate alone) was subtracted from each data point. The average of DMSO (vehicle) controls (set as 0% inhibition) was established and used to calculate % inhibition:
(§12) IC50 values were obtained by plotting the kinase inhibition values and fitting the dose-activity curves using a log(agonist) versus response−variable slope (four parameters) function using either GraphPadPrism (V7.0) or Dotmatics Screening Ultra platform. Standards included in the ARAF kinase assay were Belvarafenib (MedChem Express cat #HY-109080; CAS #1446113-23-0), LXH254 (MedChem Express cat #HY-112089; CAS #1800398-38-2) and BGB283 (cat #HY-18957; CAS #1446090-79-4).

[3] = molecular target: T1, BRAF (Homo sapiens, UniProt P15056); test: BRAF kinase activity assay (ADP-Glo); assay type: biochemical
T1 construct: GST; purchased Millipore Sigma B4062-10UG
T1 sequence (P15056 whole entry): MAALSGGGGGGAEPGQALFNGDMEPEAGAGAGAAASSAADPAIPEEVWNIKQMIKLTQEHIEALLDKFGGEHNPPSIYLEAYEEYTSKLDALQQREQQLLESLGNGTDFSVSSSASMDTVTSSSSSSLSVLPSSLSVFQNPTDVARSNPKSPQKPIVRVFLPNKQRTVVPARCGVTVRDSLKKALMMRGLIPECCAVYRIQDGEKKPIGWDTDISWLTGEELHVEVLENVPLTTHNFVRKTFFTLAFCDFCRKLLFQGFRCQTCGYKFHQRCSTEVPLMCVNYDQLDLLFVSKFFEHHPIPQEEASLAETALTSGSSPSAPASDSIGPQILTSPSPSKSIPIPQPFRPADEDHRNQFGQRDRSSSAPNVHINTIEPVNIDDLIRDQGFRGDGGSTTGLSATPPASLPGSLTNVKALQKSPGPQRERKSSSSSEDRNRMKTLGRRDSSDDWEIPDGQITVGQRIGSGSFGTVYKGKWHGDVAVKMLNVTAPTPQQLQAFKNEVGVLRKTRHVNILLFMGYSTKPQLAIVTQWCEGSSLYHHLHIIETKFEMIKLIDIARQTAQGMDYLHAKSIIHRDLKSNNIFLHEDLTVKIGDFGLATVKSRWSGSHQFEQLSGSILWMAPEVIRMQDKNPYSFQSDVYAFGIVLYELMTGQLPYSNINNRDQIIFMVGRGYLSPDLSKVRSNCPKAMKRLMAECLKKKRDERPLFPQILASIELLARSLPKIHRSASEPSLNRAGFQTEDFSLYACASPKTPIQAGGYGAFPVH
Method: as §8, §9, §10, §11, §12

[4] = system: SW480 pERK; test: Phospho-ERK inhibition, AlphaLISA SureFire Ultra p-ERK 1/2; assay type: cell-based, human; conditions: for IC50: 1 h treatment; for SW480 (Ymin %): lowest value of the pERK IC50 curve
Method: as §1, §2, §3, §4, §5, §6, §7

[5] = Table 3, read-out: SW480 PERK IC50
[6] = Table 2, read-out: SW480 PERK IC50 (UM)

Row | SMILES | IC50 ([1]; Table 3) [µM] | HCT116 (Ymin %) ([1]; Table 3) [%] | IC50 ([1]; Table 2) [µM] | HCT116 (Ymin %) ([1]; Table 2) [%] | IC50 [4, 5] [µM] | SW480 (Ymin %) ([4]; Table 3) [%] | IC50 [4, 6] [µM] | SW480 (Ymin %) ([4]; Table 2) [%] | further results
1 | Cc1c(F)cccc1S(=O)(=O)Nc1ccc(F)c(Nc2ncnc3cnc(-n4nc(C(=O)N5CCC(O)CC5)c5ccccc54)nc23)c1F [Example 108] | 1 to 10 | −7.0 | – | – | – | – | – | – | IC50 [2]: 0.01 to 0.05 µM
2 | Cc1c(F)cccc1S(=O)(=O)Nc1ccc(F)c(Nc2ncnc3cnc(-n4cc(S(=O)(=O)N(C)Cc5ccncc5)c5ccccc54)nc23)c1F [Example 113] | 0.5 to 1 | −7.0 | – | – | – | – | – | – | IC50 ([3]; Table 3): 0.001 to 0.01 µM; IC50 [2]: 0.01 to 0.05 µM
3 | CSc1ncc2ncnc(Nc3c(F)ccc(NS(=O)(=O)c4cccc(F)c4C)c3F)c2n1 [Example 90] | – | – | – | – | – | – | – | – | IC50 ([3]; Table 2): 0.001 to 0.01 µM; IC50 ([1]; Homo sapiens, HCT-116, Table 2): 1 to 10 µM
4 | COc1ccc(S(=O)(=O)Nc2ccc(F)c(Nc3ncnc4cnc(SC)nc34)c2F)c(C)c1Cl [Example 92] | – | – | 1 to 10 | −12 | – | – | – | – | IC50 ([3]; Table 2): 0.001 to 0.01 µM
5 | COc1ccc(S(=O)(=O)Nc2ccc(F)c(Nc3ncnc4cnc(N5CC[C@@H](F)C5)nc34)c2F)cc1 [Example 38] | 10 to 30 | −1 | – | – | 10 to 30 | −3 | – | – | –
6 | CSc1ncc2ncnc(Nc3c(F)ccc(NS(=O)(=O)c4ccc5c(c4)OCO5)c3F)c2n1 [Example 6] | – | – | 10 to 30 | −10 | – | – | 1 to 10 | 1 | –
7 | COc1ccc(S(=O)(=O)Nc2ccc(F)c(Nc3ncnc4cnc(-n5ccnc5)nc34)c2F)cc1 [Example 35] | 10 to 30 | −4 | – | – | 1 to 10 | 14 | – | – | –
8 | COc1ccc(S(=O)(=O)Nc2ccc(F)c(Nc3ncnc4cnc(Oc5cccc(C#N)c5)nc34)c2F)cc1 [Example 49] | 10 to 30 | 8 | – | – | 10 to 30 | −9 | – | – | –
9 | Cc1ncn(-c2ncc3ncnc(Nc4c(F)ccc(NS(=O)(=O)c5ccc6c(c5)CCO6)c4F)c3n2)c1C [Example 65] | 1 to 10 | 4 | – | – | 1 to 10 | 5 | – | – | –
10 | COc1ccc(S(=O)(=O)Nc2ccc(F)c(Nc3ncnc4cnc(N5CCC5)nc34)c2F)cc1 [Example 43] | 10 to 30 | 11 | – | – | 10 to 30 | 0 | – | – | –
11 | COCC1CCN(S(=O)(=O)Nc2ccc(F)c(Nc3ncnc4cnc(-n5cnc6ccccc65)nc34)c2F)C1 (stereo not shown) [Example 70] | 1 to 10 | 0 | – | – | 1 to 10 | 1 | – | – | –
12 | COc1ccc(S(=O)(=O)Nc2ccc(F)c(Nc3ncnc4cnc(SC)nc34)c2F)c(OC)c1 [Example 19] | – | – | 10 to 30 | −4 | – | – | 1 to 10 | 4 | –
13 | CSc1ncc2ncnc(Nc3c(F)ccc(NS(=O)(=O)c4ccc5c(c4)CCO5)c3F)c2n1 [Example 4] | – | – | 1 to 10 | −5 | – | – | 1 to 10 | −2 | –
14 | CSc1ncc2ncnc(Nc3c(F)ccc(NS(=O)(=O)N4CCCC4)c3F)c2n1 [Example 24] | – | – | 10 to 30 | 10 | – | – | 1 to 10 | 13 | –
15 | COc1ccc(S(=O)(=O)Nc2ccc(F)c(Nc3ncnc4cnc(-n5cnc(C)c5C)nc34)c2F)c(F)c1 [Example 53] | 1 to 10 | 15 | – | – | 1 to 10 | −4 | – | – | –
16 | CSc1ncc2ncnc(Nc3c(F)ccc(NS(=O)(=O)c4ccccc4C#N)c3F)c2n1 [Example 5] | – | – | 10 to 30 | 8 | – | – | 1 to 10 | 8 | –
17 | COc1ccc(S(=O)(=O)Nc2ccc(F)c(Nc3ncnc4cnc(SC)nc34)c2F)cc1OC [Example 2] | – | – | 1 to 10 | −14 | – | – | 1 to 10 | 5 | –
18 | COc1ccc(S(=O)(=O)Nc2ccc(F)c(Nc3ncnc4cnc(SC)nc34)c2F)c(C(F)(F)F)c1 [Example 14] | – | – | 1 to 10 | −5 | – | – | 1 to 10 | −6 | –
19 | O=S(=O)(Nc1ccc(F)c(Nc2ncnc3cnc(-n4cnc5ccccc54)nc23)c1F)N1CC2CC2C1 (stereo not shown) [Example 74] | 1 to 10 | −3 | – | – | 1 to 10 | −7 | – | – | –
20 | COc1ccc(S(=O)(=O)Nc2ccc(F)c(Nc3ncnc4cnc(N5CCC(O)C5)nc34)c2F)cc1 (stereo not shown) [Example 42] | 10 to 30 | −2 | – | – | 10 to 30 | 11 | – | – | –
